18 molecules from patent US8912227B1, “Bicyclic pyrrole derivatives useful as agonists of GPR120” (Janssen Pharmaceutica NV, priority 2014, dated 2014) can be followed below.

pEC50: −log10 of the molar value.

Holding throughout (type): cell-based
The target of assay [1] is T1, long form of human GPR120 (Homo sapiens, UniProt Q5NUL3).
T1 construct: host or cells: PathHunter CHO-K1 GPR120 β-Arrestin Cell Line
The assay can be described thus: Human GPR120 DiscoveRx PathHunter β-Arrestin assay, Procedure β-arrestin A. The settings on record: PathHunter CHO-K1 GPR120 β-Arrestin cell line, 3000 cells per well. From the text: The binding of an agonist (medium/long chain fatty acids or small molecule agonists) to the G-protein-coupled receptor GPR120 activates phospholipase C, leading to release of intracellular Ca^+2 through the generation of inositol 1,4,5-trisphosphate (InsP3 or IP3). GPR120 activation can also trigger intracellular signaling via recruitment of β-Arrestin. In the present method, agonist-induced activation of the human GPR120 receptor is monitored through the use of PathHunter CHO-K1 GPR120 β-Arrestin Cell Line engineered by DiscoveRx, as detailed below. The cell lines are designed to co-express both the ProLink/Enzyme Donor (PK)-tagged GPCR and the Enzyme […] (EA)-tagged Beta-Arrestin fusion proteins. Upon GPR120 receptor stimulation/activation, the EA-tagged β-Arrestin portion is translocated to the tagged receptor, where the two enzyme fragments are brought within close proximity. Under these conditions, these fragments can interact and form an active Beta-gal enzyme complex through Enzyme Fragment Complementation (EFC). This active Beta-gal complex can enzymatically hydrolyse the substrate to produce a detectable light signal; therefore, activation as a function of agonist concentration can be expressed as an EC50 value to determine relative compound activities. This in vitro assay therefore serves to assess compound agonist activity of the GPR120.
In Procedure β-arrestin A, the cell used were PathHunter CHO-K1 GPR120 β-Arrestin Cell Line, expressing the long form of human GPR120 (Genbank accession number NM_181745), with 3000 cells per well.
The selected CHO-K1 GPR120 β-Arrestin cells were cultured in Ham's F12 media supplemented with 10% fetal bovine serum (FBS), 1% Glutamine, 1×p/s, 800 μg/ml G418 and 300 μg/ml Hygromycin B (for selection). Cell stocks were maintained and grown in a sub-confluent state using standard cell culture procedures. The day before the experiment, the cells were harvested with non-enzymatic cell dissociation buffer and re-suspended in complete growth media at the desired concentration. A Corning 384-plate was then seeded with the proper number of cells in a volume of 25 μL, per well. The seeded plates were incubated overnight at 37° C.
On the day of the experiment, the Assay Buffer containing (a) HBSS with Ca^++ and Mg^++, (b) 20 mM HEPES, and (c) 0.1% BSA stabilizer (pH 7.4) was prepared. The growth medium was gently removed from the cell plates and 20 μL of Assay Buffer added to each well. The plate was then incubated at 37° C. for 60 mins. Test compounds were serially diluted in Assay Buffer to desired concentrations (more particularly, to one or more of the following μM concentrations: 25 μM, 12.5 μM, 6.25 μM, 3.125 μM, 1.562 μM, 0.781 μM, 0.391 μM, 0.195 μM, 0.098 μM, 0.049 μM, 0.024 μM, 0.012 μM). Five μl of compound dilution was then added to each well and the plate incubated at 37° C. for 90 mins. The detection reagents were prepared according to the manufacture's instruction. Twelve μL of the detection reagents were added to each well and the plate incubated at room temperature for 60 mins.
The plates were read on an EnVision instrument, using Protocol name: Luminescence, Plate type: 384 Costar, Measurement height: 3 mm, Measurement time: 1 s, Aperture: 384 Plate aperture. The % activity relative to the positive control was calculated using the following equation:
The % Activity values were plotted versus the concentration of test compound and fitted to a sigmoidal dose-response curve with a Hill slope=1 (fixed value) using nonlinear regression with GraphPad Prism 5.0 to calculate the EC50 values. The Fitting Equation was: Y=Bottom+(Top−Bottom)/(1+10^((LogEC50−X)*HillSlope)), where X is the log of the concentration and Y is the response.

For assay [2], the target named is T2, Human GPR120 short form (Homo sapiens, UniProt Q5NUL3).
T2 construct: expressed in transfected cells
T2 sequence (Q5NUL3 1-361): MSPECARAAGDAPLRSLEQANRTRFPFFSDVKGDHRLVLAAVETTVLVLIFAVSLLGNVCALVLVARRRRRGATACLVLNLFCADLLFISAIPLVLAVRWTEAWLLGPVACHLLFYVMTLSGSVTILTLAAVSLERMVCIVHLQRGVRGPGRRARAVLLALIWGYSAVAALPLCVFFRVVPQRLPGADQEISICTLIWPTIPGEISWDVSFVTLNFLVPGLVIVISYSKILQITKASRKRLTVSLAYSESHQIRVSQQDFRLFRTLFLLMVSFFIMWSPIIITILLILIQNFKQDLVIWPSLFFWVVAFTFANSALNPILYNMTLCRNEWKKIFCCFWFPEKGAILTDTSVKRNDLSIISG
Briefly: Human GPR120 calcium flux assay, Procedure Calcium A. The conditions noted are these: HEK-293 cells expressing human GPR120 short form, 2500 cells/well, FLIPR. In outline:
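HEK293 cells stably expressing the human GPR120 short splice variant (NM_001195755.1) were seeded at 2500 cells/well, serum-starved 1 h and loaded with Fluo-4 NW plus probenecid. Compounds (100–0.012 μM solutions, 0.2% final DMSO) were added, and FLIPR calcium flux was read for 300 s. EC50 came from a variable-slope fit (Hill <2) of Fmax−Fmin.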

In assay [3] the target is T2, Human GPR120 short form. Briefly: Human GPR120 calcium flux assay, Procedure Calcium B. The conditions noted are these: HEK-293 cells expressing human GPR120 short form, 4200 cells/well, FLIPR.

T1 sequence (Q5NUL3 1-377 isoform Q5NUL3-1): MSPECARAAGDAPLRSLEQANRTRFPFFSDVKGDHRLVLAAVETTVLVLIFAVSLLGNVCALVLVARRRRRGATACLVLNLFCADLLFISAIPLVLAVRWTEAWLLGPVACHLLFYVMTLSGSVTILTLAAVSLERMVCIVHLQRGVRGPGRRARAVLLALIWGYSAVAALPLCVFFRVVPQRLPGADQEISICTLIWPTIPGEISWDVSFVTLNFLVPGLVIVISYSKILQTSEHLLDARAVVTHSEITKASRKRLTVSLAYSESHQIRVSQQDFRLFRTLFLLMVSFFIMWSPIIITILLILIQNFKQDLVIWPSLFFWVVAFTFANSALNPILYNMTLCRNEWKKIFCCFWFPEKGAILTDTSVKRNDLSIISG
T1 sequence (P32121 whole entry partner): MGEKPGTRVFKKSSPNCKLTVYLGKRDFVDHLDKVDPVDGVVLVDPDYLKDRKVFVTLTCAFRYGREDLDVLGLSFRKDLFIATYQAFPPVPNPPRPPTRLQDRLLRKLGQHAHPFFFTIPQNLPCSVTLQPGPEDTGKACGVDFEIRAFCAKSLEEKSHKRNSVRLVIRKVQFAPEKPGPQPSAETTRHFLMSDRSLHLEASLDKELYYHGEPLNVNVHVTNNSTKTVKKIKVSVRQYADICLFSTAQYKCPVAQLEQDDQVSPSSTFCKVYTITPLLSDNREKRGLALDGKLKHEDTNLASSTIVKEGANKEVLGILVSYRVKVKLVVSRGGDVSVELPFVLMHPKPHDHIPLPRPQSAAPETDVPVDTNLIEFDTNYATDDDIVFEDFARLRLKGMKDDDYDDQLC

Consider `COc1ccc(-n2ccc(C(F)(F)F)c2COc2c(F)cc(CCC(=O)O)cc2F)cc1` [Compound 28, 3-(3,5-Difluoro-4-{[1-(4-methoxyphenyl)-3-(trifluoromethyl)-1H-pyrrol-2-yl]methoxy}phenyl)propanoic acid], for which the figures for the negative-log EC50 (pEC50) (in assay [1]; at Human GPR120 short form [2]; at Human GPR120 short form [3]) were 6.66, 6.19 and 6.97, respectively.
As to `O=C(O)CCc1ccc(OCc2c(Cl)ccn2-c2ccc(Cl)cc2)c(F)c1F` [Compound 11, 3-(4-{[3-chloro-1-(4-chlorophenyl)-1H-pyrrol-2-yl]methoxy}-2,3-difluorophenyl)propanoic acid], the values for the negative logarithm of the EC50 (pEC50) (in assay [1]; on Human GPR120 short form [2]; at Human GPR120 short form [3]) were 6.07, 6.03 and 6.79, respectively.
The matching figures for `OCCCc1ccc(OCc2c(Br)ccn2-c2ccc(Cl)cc2)c(F)c1F` [Compound 5, 3-(4-{[3-Bromo-1-(4-chlorophenyl)-1H-pyrrol-2-yl]methoxy}-2,3-difluorophenyl)propan-1-ol]: 6.89, 6.36 and 6.43.
For `O=C(O)CCc1ccc(OCc2c(C(F)(F)F)ccn2-c2ccc(Cl)cc2)c(F)c1F` [Compound 16, 3-(4-{[1-(4-Chlorophenyl)-3-(trifluoromethyl)-1H-pyrrol-2-yl]methoxy}-2,3-difluorophenyl)propanoic acid], the pEC50 – broadly, −log10 of the EC50, conventionally taken in molar units – in assay [1] was 6.19; at Human GPR120 short form [2], 6.08; on Human GPR120 short form [3], 7.04.
Take `O=C(O)CCc1ccc(OCc2c(Br)ccn2-c2ccc(Cl)cc2)c(F)c1F` [Compound 6, 3-(4-{[3-Bromo-1-(4-chlorophenyl)-1H-pyrrol-2-yl]methoxy}-2,3-difluorophenyl)propanoic acid]: the figures for the negative-log EC50 (pEC50) (in assay [1]; at Human GPR120 short form [2]; at Human GPR120 short form [3]) were 6.14, 6.09 and 6.79, respectively.
For the molecule `COc1ccc(-n2ccc(C(F)(F)F)c2COc2ccc(CCC(=O)O)c(F)c2F)cc1` [Compound 26, 3-(2,3-Difluoro-4-{[1-(4-methoxyphenyl)-3-(trifluoromethyl)-1H-pyrrol-2-yl]methoxy}phenyl)propanoic acid], the negative logarithm of the EC50 (pEC50) in assay [1] was 6.60; at Human GPR120 short form [2] it was 6.04; at Human GPR120 short form [3], 6.64.
Regarding `Cc1c(CCCO)ccc(OCc2c(C(F)(F)F)ccn2-c2ccccc2)c1C` [Compound 19, 3-(2,3-Dimethyl-4-{[1-phenyl-3-(trifluoromethyl)-1H-pyrrol-2-yl]methoxy}phenyl)propan-1-ol], the negative logarithm of the EC50 (pEC50) in assay [1] is 6.55; on Human GPR120 short form [2], 6.07; at Human GPR120 short form [3], 6.58.
Take `Cc1c(CCC(=O)O)ccc(OCc2c(Cl)ccn2-c2ccc(Cl)cc2)c1C` [Compound 8, 3-(4-{[3-Chloro-1-(4-chlorophenyl)-1H-pyrrol-2-yl]methoxy}-2,3-dimethylphenyl)propanoic acid]: the results for the pEC50 (in assay [1]; on Human GPR120 short form [2]; on Human GPR120 short form [3]) were 6.00, 6.28 and 6.76, respectively.
For `Cc1ccc(-n2ccc(C(F)(F)F)c2COc2c(F)cc(CCCO)cc2F)cc1` [Compound 37, 3-(3,5-difluoro-4-[[1-(4-methylphenyl)-3-(trifluoromethyl)-1H-pyrrol-2-yl]methoxy]phenyl)propan-1-ol], the pEC50 was 7.80 in assay [1], 6.92 on Human GPR120 short form [2] and 7.55 on Human GPR120 short form [3].
`CCc1ccc(-n2ccc(C(F)(F)F)c2COc2ccc(CCC(=O)O)c(F)c2F)cn1` [Compound 58, 3-(4-[[1-(6-ethylpyridin-3-yl)-3-(trifluoromethyl)-1H-pyrrol-2-yl]methoxy]-2,3-difluorophenyl)propanoic acid]: the negative logarithm of the EC50 (pEC50) is 6.03 in assay [1], 6.05 at Human GPR120 short form [2] and 6.79 on Human GPR120 short form [3].
Turning to `COc1ccc(-n2ccc(C(F)(F)F)c2COc2c(F)cc(CCCO)cc2F)cc1` [Compound 31, 3-(3,5-Difluoro-4-{[1-(4-methoxyphenyl)-3-(trifluoromethyl)-1H-pyrrol-2-yl]methoxy}phenyl)propan-1-ol], the results for the negative-log EC50 (pEC50) (in assay [1]; at Human GPR120 short form [2]; at Human GPR120 short form [3]) were 7.21, 6.65 and 7.17, respectively.
For `OCCCc1cc(F)c(OCc2c(C(F)(F)F)ccn2-c2ccc(Cl)cc2)c(F)c1` [Compound 46, 3-(4-{[1-(4-Chlorophenyl)-3-(trifluoromethyl)-1H-pyrrol-2-yl]methoxy}-3,5-difluorophenyl)propan-1-ol], the results for the pEC50 (in assay [1]; on Human GPR120 short form [2]; on Human GPR120 short form [3]) were 7.00, 6.21 and 7.37, respectively.
The matching figures for `O=C(O)CCc1cc(F)c(OCc2c(C(F)(F)F)ccn2-c2ccccc2)c(F)c1` [Compound 38, 3-(3,5-difluoro-4-((1-phenyl-3-(trifluoromethyl)-1H-pyrrol-2-yl)methoxy)phenyl)propanoic acid]: 6.17, 6.35 and 7.00.
With `Cc1ccc(-n2ccc(C(F)(F)F)c2COc2c(F)cc(CCC(=O)O)cc2F)cn1` [Compound 49, 3-(3,5-Difluoro-4-{[1-(6-methylpyridin-3-yl)-3-(trifluoromethyl)-1H-pyrrol-2-yl]methoxy}phenyl)propanoic acid], the pEC50 in assay [1] is 5.91; on Human GPR120 short form [2], 6.06; at Human GPR120 short form [3], 6.54.
The corresponding values for `Cc1c(CCCO)ccc(OCc2c(C(F)(F)F)ccn2-c2ccc(Cl)cc2)c1C` [Compound 17, 3-(4-{[1-(4-Chlorophenyl)-3-(trifluoromethyl)-1H-pyrrol-2-yl]methoxy}-2,3-dimethylphenyl)propan-1-ol] are 6.62, 5.96 and 6.27.
Regarding `Cc1ccc(-n2ccc(C(F)(F)F)c2COc2ccc(CCCO)c(F)c2F)cc1` [Compound 44, 3-(2,3-difluoro-4-[[1-(4-methylphenyl)-3-(trifluoromethyl)-1H-pyrrol-2-yl]methoxy]phenyl)propan-1-ol], the pEC50 in assay [1] was 7.01; on Human GPR120 short form [2], 6.36; at Human GPR120 short form [3], 7.30.
With `OCCCc1ccc(OCc2c(Cl)ccn2-c2ccc(Cl)cc2)c(F)c1F` [Compound 10, 3-(4-{[3-Chloro-1-(4-chlorophenyl)-1H-pyrrol-2-yl]methoxy}-2,3-difluorophenyl)propan-1-ol], the negative-log EC50 (pEC50) in assay [1] was 6.59; at Human GPR120 short form [2] it was 5.96; at Human GPR120 short form [3], 6.13.
For `Cc1c(CCC(=O)O)ccc(OCc2c(C(F)(F)F)ccn2-c2ccc(Cl)cc2)c1C` [Compound 15, 3-(4-{[1-(4-Chlorophenyl)-3-(trifluoromethyl)-1H-pyrrol-2-yl]methoxy}-2,3-dimethylphenyl)propanoic acid], the pEC50 in assay [1] was 5.96; at Human GPR120 short form [2], 6.00; at Human GPR120 short form [3] it was 7.06.
